Peptide text beside a SMILES is read from it.

Experimental findings from publication PMC6445162, “Effects of NS2B-NS3 protease and furin inhibition on West Nile and Dengue virus replication” (Journal of Enzyme Inhibition and Medicinal Chemistry, 2017) are described below.

In one experiment the target is T1, WNV-protease (West Nile virus, UniProt P06935).
T1 construct: WNV NS2B 40-amino acid cofactor together with the NS3 protease domain
The experiment is described as follows: Incubation with WNV protease and HPLC analysis of cleavage. In kind it is biochemical. The settings on record: identical conditions, 4 h; data not shown. Here is the method: The preferred P3-P1 Lys-Lys-Arg segment[29] was used for the preparation of a series of peptidic inhibitors. The peptides were modified in their prime site segment and at the P4 position (Table 2). […] In contrast, under identical conditions approximately 33% of the chromogenic substrate Phac-Lys-Lys-Arg-pNA was cleaved (data not shown). Thus, these compounds seem to be poor substrates of the WNV NS2B-NS3 protease and therefore, act as competitive inhibitors. The best Ki values <0.2 µM were obtained for peptides with the general structure phenylacetyl-Lys-Lys-Arg-NH2 containing an N-terminal guanidinomethyl substitution at the P4-residue.

The test system of the next experiment is DENV (strain 16681). The experiment is described as follows: DENV plaque assay (virus yield from infected Huh-7 cells, titration on VeroE6). It counts as cell-based, Dengue virus serotype 2. Particulars: preliminary studies. As to the method: Inhibition of DENV propagation was determined by plaque assay as described recently[20]^,[28] with slight modifications. Huh-7 cells were seeded into 96-well plates and incubated overnight. The next day, cells were infected with DENV (strain 16681) at a multiplicity of infection (MOI) of 1 PFU/cell. Given concentrations of the compounds, dissolved in culture medium, were added to the cells together with the virus. After 2 h incubation at 37 °C, inocula were removed and cells were covered with fresh medium containing given concentrations of the inhibitors. Production of virus progeny was determined 48 h postinfection by titration of cell supernatants using a plaque assay on VeroE6 cells. Ribavirin was included as a reference compound.

T1 sequence (P06935 1502-1679): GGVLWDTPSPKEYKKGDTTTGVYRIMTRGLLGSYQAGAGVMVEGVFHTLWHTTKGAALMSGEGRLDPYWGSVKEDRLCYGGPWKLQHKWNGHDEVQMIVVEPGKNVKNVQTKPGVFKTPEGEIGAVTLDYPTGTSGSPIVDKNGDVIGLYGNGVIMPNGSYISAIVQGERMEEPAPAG
T1 sequence (P06935 1424-1463): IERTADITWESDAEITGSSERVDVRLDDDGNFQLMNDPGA

With `N=C(N)NCCC[C@H](NC(=O)[C@H](CCCCN)NC(=O)[C@H](CCCCN)NC(=O)Cc1ccccc1)C(=O)Nc1ccc([N+](=O)[O-])cc1` [Phac-Lys-Lys-Arg-pNA] (HELM PEPTIDE1{[O=C(Cc1ccccc1)[*:2]].K.K.R.[O=[N+]([O-])c1ccc(N[*:1])cc1]}$$$$V2.0), the “amount cleaved by the WNV-protease” value on WNV-protease was “approximately 33%”.

With `N=C(N)N[C@H]1CC[C@H](CNC(=O)[C@H](CCCCN)NC(=O)[C@H](CCCCN)NC(=O)Cc2ccc(Cl)c(Cl)c2)CC1` [inhibitor 1], in the experiment on DENV (strain 16681), the “antiviral effect in DENV-infected cells” value was “no antiviral effect”.
